Experimental data as given in US20230106880A1, “INHIBITORS OF HUMAN IMMUNODEFICIENCY VIRUS REPLICATION” (VIIV HEALTHCARE UK (NO.5) LIMITED, priority 2020, published 2023).

Tests used:
[1] = test system: recombinant NL4-3 virus (Renilla luciferase) in MT-2 cells; test: HIV cell culture assay (antiviral, luciferase readout in infected MT-2 cells); format: cell-based; conditions: NL43
Protocol: HIV cell culture assay—MT-2 cells, 293T cells and the proviral DNA clone of NL4-3 virus were obtained from the NIH AIDS Research and Reference Reagent Program. MT-2 cells were propagated in RPMI 1640 media supplemented with 10% heat inactivated fetal bovine serum (FBS), […]. The 293T cells were propagated in DMEM media supplemented with 10% heat inactivated FBS, […]. A recombinant NL4-3 proviral clone, in which a section of the nef gene was replaced with the Renilla luciferase gene, was used to make the reference virus used in these studies. The recombinant virus was prepared through transfection of the recombinant NL4-3 proviral clone into 293T cells using Transit-293 Transfection Reagent from Mirus Bio LLC (Madison, Wis.). Supernatent was harvested after 2-3 days and the amount of virus present was titered in MT-2 cells using luciferase enzyme activity as a marker by measuring luciferase enzyme activity. Luciferase was quantitated using the EnduRen Live Cell Substrate from Promega (Madison, Wis.). Antiviral activities of compounds toward the recombinant virus were quantified by measuring luciferase activity in MT-2 cells infected for 4-5 days with the recombinant virus in the presence of serial dilutions of the compound.
The 50% effective concentration (EC50) was calculated by using the exponential form of the median effect equation where (Fa)=1/[1+(ED50/drug conc.)m] (Johnson V A, Byington R T. Infectivity Assay. In Techniques in HIV Research. ed. Aldovini A, Walker B D. 71-76. New York: Stockton Press. 1990). The 50% inhibitory concentration (EC50) was calculated by using the exponential form of the median effect equation where percent inhibition=1/[1+(EC50/drug concentration)m], where m is a parameter that reflects the slope of the concentration-response curve.

[2] = Compound cytotoxicity, XTT-based colorimetric assay in uninfected MT2 cells; format: cell-based; conditions: human, day 4, XTT assay
Protocol: Compound cytotoxicity and the corresponding CC50 values were determined using the same protocol as described in the antiviral assay except that uninfected cells were used. Cytotoxicity was assessed on day 4 in uninfected MT2 cells by using an XTT (2,3-bis[2-Methoxy-4-nitro-5-sulfophenyl]-2H-tetrazolium-5-carboxyanilide inner salt)-based colorimetric assay (Sigma-Aldrich, St Louis, Mo.).

Compound	EC50 [1]	CC50 at 4 day [2]
Cn1nc(NS(C)(=O)=O)c2c(Cl)ccc(-n3c([C@H](Cc4cc(F)cc(F)c4)NC(=O)Cn4nc(C5CC5)c5c4C(F)(F)[C@@H]4C[C@H]54)nc4nc(OCCC(C)(F)F)ccc4c3=O)c21 (atropisomer, axis not shown; (P)) [Example 1, N—((S)-1-((3P)-3-(4-chloro-1-methyl-3-(methylsulfonamido)-1H-indazol-7-yl)-7-(3,3-difluorobutoxy)-4-oxo-3,4-dihydropyrido[2,3-d]pyrimidin-2-yl)-2-(3,5-difluorophenyl)ethyl)-2-((3bS,4aR)-3-cyclopropyl-5,5-difluoro-3b,4,4a,5-tetrahydro-1H-cyclopropa[3,4]cyclopenta[1,2-c]pyrazol-1-yl)acetamide]	0.027 nM	> 100 nM
Cn1nc(NS(C)(=O)=O)c2c(Cl)ccc(-n3c([C@H](Cc4cc(F)cc(F)c4)NC(=O)Cn4nc(C5CC5)c5c4C(F)(F)[C@H]4C[C@@H]54)nc4nc(OCCC(F)(F)F)ccc4c3=O)c21 (atropisomer, axis not shown; (P)) [Example 4, N—((S)-1-((3P)-3-(4-chloro-1-methyl-3-(methylsulfonamido)-1H-indazol-7-yl)-4-oxo-7-(3,3,3-trifluoropropoxy)-3,4-dihydropyrido[2,3-d]pyrimidin-2-yl)-2-(3,5-difluorophenyl)ethyl)-2-((3bR,4aS)-3-cyclopropyl-5,5-difluoro-3b,4,4a,5-tetrahydro-1H-cyclopropa[3,4]cyclopenta[1,2-c]pyrazol-1-yl)acetamide]	0.079 nM	> 100 nM
Cn1nc(NS(C)(=O)=O)c2c(Cl)ccc(-n3c([C@H](Cc4cc(F)cc(F)c4)NC(=O)Cn4nc(C5CC5)c5c4C(F)(F)[C@@H]4C[C@H]54)nc4nc(OCCC(F)(F)F)ccc4c3=O)c21 (atropisomer, axis not shown; (P)) [Example 3, N—((S)-1-((3P)-3-(4-chloro-1-methyl-3-(methylsulfonamido)-1H-indazol-7-yl)-4-oxo-7-(3,3,3-trifluoropropoxy)-3,4-dihydropyrido[2,3-d]pyrimidin-2-yl)-2-(3,5-difluorophenyl)ethyl)-2-((3bS,4aR)-3-cyclopropyl-5,5-difluoro-3b,4,4a,5-tetrahydro-1H-cyclopropa[3,4]cyclopenta[1,2-c]pyrazol-1-yl)acetamide]	0.014 nM	> 100 nM
Cn1nc(NS(C)(=O)=O)c2c(Cl)ccc(-n3c([C@H](Cc4cc(F)cc(F)c4)NC(=O)Cn4nc(C5CC5)c5c4C(F)(F)[C@H]4C[C@@H]54)nc4nc(OCCC(C)(F)F)ccc4c3=O)c21 (atropisomer, axis not shown; (P)) [Example 2, N—((S)-1-((3P)-3-(4-chloro-1-methyl-3-(methylsulfonamido)-1H-indazol-7-yl)-7-(3,3-difluorobutoxy)-4-oxo-3,4-dihydropyrido[2,3-d]pyrimidin-2-yl)-2-(3,5-difluorophenyl)ethyl)-2-((3bR,4aS)-3-cyclopropyl-5,5-difluoro-3b,4,4a,5-tetrahydro-1H-cyclopropa[3,4]cyclopenta[1,2-c]pyrazol-1-yl)acetamide]	0.05 nM	> 100 nM
